Our source for the EC50 values is ChEMBL document CHEMBL1158246, “New cytotoxic briaran diterpenes from the Formosan gorgonian Briareum sp” (1996).

In brackets after ≈: the same amount, converted by molar mass.

What all share (type): functional
What all share (conditions): read-out: ED50 (the source's name)

In one assay the test system is KB. In words: Cytotoxicity against human KB cells.
For the next assay, the system named is HT-29. Kind of assay: Cytotoxicity against human HT29 cells.
For the next assay, the system named is P388. Kind of assay: Cytotoxicity against mouse P388 cells.
Another assay deals with A549. Kind of assay: Cytotoxicity against human A549 cells.

As to `CC(=O)O[C@H]1C[C@@H]2O[C@]2(C)[C@@H]2[C@@H](O)[C@]34O[C@]3(C)C(=O)O[C@H]4/C=C(/C)CC[C@@H](OC(C)=O)[C@@]12C`, the EC50 in the assay with KB was over 50 µg/mL; with HT-29, 6.96 µg/mL (≈ 15 µM); in the assay with P388 it was 0.61 µg/mL (≈ 1.31 µM); with A549, over 50 µg/mL.

Take `CC(=O)O[C@H]1CC=C(C)[C@@H]2[C@@H](O)[C@]34O[C@]3(C)C(=O)O[C@H]4/C=C(/C)CC[C@@H](OC(C)=O)[C@@]12C`: the EC50 in the assay with KB was 0.27 µg/mL (≈ 0.602 µM); in the assay with HT-29, 8.27 µg/mL (≈ 18.4 µM); with P388 it was 0.28 µg/mL (≈ 0.624 µM); in the assay on A549, 10.3 µg/mL (≈ 23.1 µM).

As to `CC(=O)O[C@H]1CC=C(C)[C@@H]2[C@@H](OC(C)=O)[C@]34O[C@]3(C)C(=O)O[C@H]4/C=C(/C)CC[C@@H](OC(C)=O)[C@@]12C` [BRIAREOLIDE H], the EC50 with KB was over 50 µg/mL; in the assay with HT-29, 0.29 µg/mL (≈ 0.591 µM); in the assay on P388 it was 3.1 µg/mL (≈ 6.32 µM); with A549 it was over 50 µg/mL.

For `CC(=O)O[C@H]1C[C@@H]2O[C@]2(C)[C@@H]2[C@@H](OC(C)=O)[C@]34O[C@]3(C)C(=O)O[C@H]4/C=C(/C)CC[C@@H](OC(C)=O)[C@@]12C`, the EC50 came to 24.4 µg/mL (≈ 48.3 µM) with KB, 10.1 µg/mL (≈ 19.9 µM) in the assay on HT-29, 1.59 µg/mL (≈ 3.14 µM) in the assay on P388 and 17.4 µg/mL (≈ 34.3 µM) in the assay on A549.
